Read-outs that look alike come from different tables or passages of the source.
Tested on: Multidrug resistant Acinetobacter Baumannii, (MRAB)
Assay: microbe, parasite or virus in culture

`NCC[C@H](O)C(=O)N[C@@H]1C[C@H](N)[C@@H](O[C@H]2O[C@H](CN)[C@@H](O)[C@H](O)[C@H]2O)[C@H](O)[C@H]1O[C@H]1O[C@H](CO)[C@@H](O)[C@H](N)[C@H]1O` [AMI, Amikacin] showed a viability at 4 µg/mL (read-out: % bacterial viability, MRAB 1 014754 Urine, AMI 4 μg/ml) of 35.9%, a viability at 12 µg/mL (read-out: % bacterial viability, MRAB 1 014754 Urine, AMI 12 μg/ml) of 24.5% and a viability at 20 µg/mL (read-out: % bacterial viability, MRAB 1 014754 Urine, AMI 20 μg/ml) of 14.7%. The viability at 4 µg/mL (read-out: % bacterial viability, MRAB 2 014801 Catheter, AMI 4 μg/ml) was 36%, the viability at 12 µg/mL (read-out: % bacterial viability, MRAB 2 014801 Catheter, AMI 12 μg/ml) was 14.1% and the viability at 20 µg/mL (read-out: % bacterial viability, MRAB 2 014801 Catheter, AMI 20 μg/ml) was 8.36%. For the same compound, the viability at 4 µg/mL (read-out: % bacterial viability, MRAB 3 015069 Skin, AMI 4 μg/ml) was 66.6%, the viability at 12 µg/mL (read-out: % bacterial viability, MRAB 3 015069 Skin, AMI 12 μg/ml) was 48.6% and the viability at 20 µg/mL (read-out: % bacterial viability, MRAB 3 015069 Skin, AMI 20 μg/ml) was 41.7%. The viability at 4 µg/mL (read-out: % bacterial viability, MRAB 4 015095 Hospital Environ, AMI 4 μg/ml) was 66.4%, the viability at 12 µg/mL (read-out: % bacterial viability, MRAB 4 015095 Hospital Environ, AMI 12 μg/ml) was 42.9% and the viability at 20 µg/mL (read-out: % bacterial viability, MRAB 4 015095 Hospital Environ, AMI 20 μg/ml) was 33.9%. For the same compound, the viability at 4 µg/mL (read-out: % bacterial viability, MRAB 5 015103 Hospital Environ, AMI 4 μg/ml) was 65.2%, the viability at 12 µg/mL (read-out: % bacterial viability, MRAB 5 015103 Hospital Environ, AMI 12 μg/ml) was 26.9% and the viability at 20 µg/mL (read-out: % bacterial viability, MRAB 5 015103 Hospital Environ, AMI 20 μg/ml) was 24.6%. It also gave a viability at 4 µg/mL (read-out: % bacterial viability, MRAB 12 016419 Catheter, AMI 4 μg/ml) of 49.7%, a viability at 12 µg/mL (read-out: % bacterial viability, MRAB 12 016419 Catheter, AMI 12 μg/ml) of 22.7% and a viability at 20 µg/mL (read-out: % bacterial viability, MRAB 12 016419 Catheter, AMI 20 μg/ml) of 19.8%.

From US20200016231A1, “BIOFILM DISRUPTING COMPOSITION” (Whiteley Corporation Pty Ltd, priority 2016, published 2020)
